In patent US9745335B2 (Blirt S.A., priority 2012, dated 2017):

Experiments:
[1] = test system: LLC-PK1 cells; assay: cytotoxic activity against mammalian cells in tissue culture (MTT); format: cell-based, pig
Procedure: (§1) All media contained 100 μg/ml of penicillin G and streptomycin. 24-wells microplates containing appropriate medium were inoculated with the cells in amount of 1.2×10^4 cells/well and allowed to stand overnight. Next, tested compounds as solution in dimethylsulfoxide (DMSO) were added in volume of 10 μl (serial 2× dilutions). To control well 10 μl of DMSO was added. Microplates with cell suspensions were incubated for 120 h at temperature 37° C. at atmosphere of 95%/5% CO2. After incubation, to all wells 200 μl of solution of 3-(4,5-dimethyltiazole-2-yl)-2,5-diphenylotetrazole bromide (MTT) in PBS (4 mg/ml) was added and plates were further incubated for 4 h at 37° C. Next, to dissolve crystals of formazane 1 ml of DMSO was added and absorption of solutions was measured at the wavelength λ=540 nm (A540), using a microplates reader (Victor^3, Perkin-Wallac). […] From these graphs IC50 values were read, that is concentration of tested compound in the presence at which A540 value is half of A540 value measured in the control sample.

[2] = test system: Candida glabrata DSM 11226; assay: antifungal activity in vitro, serial dilution in RPMI 1640; format: cell-based
How it was run: (§2)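 Susceptibility was tested by serial broth dilution in buffered RPMI 1640, pH 7.0, following the NCCLS M27-A2 reference procedure for yeasts. Growth was read as optical density at 531 nm, and A531 was plotted against compound concentration.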

[3] = test system: Candida albicans ATCC 10231; assay: as above; format: cell-based
How it was run: as §2

[4] = test system: Saccharomyces cerevisiae ATCC 9763; assay: as above; format: cell-based; conditions: RPMI 1640, pH 7.0; for Antifungal activity IC50: Saccharomyces cerevisiae ATCC 9763 (first head over MIC and IC50); for Antifungal activity MIC: Saccharomyces cerevisiae ATCC 9763
How it was run: as §2

[5] = test system: Candida lusitaniae DSM 70102; assay: as above; format: cell-based
How it was run: as §2

[6] = test system: Candida tropicalis KKP 334; assay: as above; format: cell-based
How it was run: as §2

[7] = test system: Candida krusei DSM 6128; assay: as above; format: cell-based
How it was run: as §2

[8] = test system: Candida pseudotropicalis KKP 324; assay: antifungal activity in vitro, broader spectrum; format: cell-based
Procedure: (§3) For the determination of antifungal activity in vitro we used method of serial dilution in buffered medium RPMI 1640, pH 7.0, in a 96-wells microplates, according to the standard procedure (National Committee for Clinical Laboratory Standards. Reference method for broth dilution antifungal susceptibility testing of yeast, approved standard, 2nd ed. M27-A2 vol. 22 Wayne, Pa., 2002). The optical density of cells suspension was measured using a microplates reader (Victor^3, Perkin-Elmer) at the wavelength λ=531 nm (A531). On the basis of obtained results the diagrams of relation between A531 values and concentration of examined compound were made.
(§4) Obtained results are presented below in tables 2A and 2B.

[9] = test system: Candida lipolytica KKP 322; assay: antifungal activity in vitro, broader spectrum; format: cell-based
Procedure: as §3, §4

[10] = test system: Candida albicans SC 5314; assay: antifungal activity in vitro, broader spectrum; format: cell-based
Procedure: as §3, §4

[11] = test system: Candida dubliniensis CBS 7987; assay: antifungal activity in vitro, broader spectrum; format: cell-based
Procedure: as §3, §4

[12] = test system: Trichoderma viride LOCK E159; assay: antifungal activity in vitro, broader spectrum; format: cell-based
Procedure: as §3, §4

[13] = test system: Candida quilliermondii DSM 11947; assay: antifungal activity in vitro, broader spectrum; format: cell-based
Procedure: as §3, §4

[14] = test system: Candida parapsilosis DSM 5784; assay: antifungal activity in vitro, broader spectrum; format: cell-based
Procedure: as §3, §4

[15] = test system: Candida arborea KKP 319; assay: antifungal activity in vitro, broader spectrum; format: cell-based
Procedure: as §3, §4

[16] = test system: Candida stellatoidea CBS 1905; assay: antifungal activity in vitro, broader spectrum; format: cell-based
Procedure: as §3, §4

[17] = test system: Aspergillus niger LOCK E201; assay: antifungal activity in vitro, broader spectrum; format: cell-based
Procedure: as §3, §4

[18] = test system: Candida albicans clinical strain F2; assay: antifungal activity against MDR fungal strains and parents; format: cell-based; conditions: C. albicans F2, fluconazole sensitive, parent strain for F5
Procedure: as §3

[19] = test system: Candida albicans clinical strain B4 (CaMdr1p); assay: as above; format: cell-based; conditions: C. albicans B4 (CaMdr1p), fluconazole-resistant
Procedure: as §3

[20] = test system: Candida albicans clinical strain B3; assay: as above; format: cell-based; conditions: C. albicans B3, fluconazole sensitive, parent strain for B4
Procedure: as §3

[21] = test system: Candida albicans strain 5674 (CaCdr1p, CaCdr2p); assay: as above; format: cell-based; conditions: C. albicans 5674 (CaCdr1p, CaCdr2p)
Procedure: as §3

[22] = test system: Candida albicans strain STY31; assay: as above; format: cell-based; conditions: C. albicans STY31, 5674 derivative, deletion of CDR1 and CDR2
Procedure: as §3

[23] = test system: Candida albicans clinical strain F5 (CaMdr1p); assay: as above; format: cell-based; conditions: C. albicans F5 (CaMdr1p), fluconazole-resistant
Procedure: as §3

[24] = test system: Candida albicans clinical strain Gu4; assay: as above; format: cell-based; conditions: C. albicans Gu4, fluconazole sensitive, parent strain for Gu5
Procedure: as §3

[25] = test system: Candida albicans clinical strain Gu5 (CaCdr1p, CaCdr2p); assay: as above; format: cell-based; conditions: C. albicans Gu5 (CaCdr1p, CaCdr2p), fluconazole-resistant
Procedure: as §3

[26] = test system: Candida albicans strain STY7 (CaCdr1p); assay: as above; format: cell-based; conditions: C. albicans STY7 (CaCdr1p), 5674 derivative, deletion of CDR2
Procedure: as §3

[27] = test system: Human erythrocytes; assay: hemotoxicity determination (hemolytic activity); format: cell-based
How it was run: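 Human erythrocytes (2×10^7/ml in saline) were incubated with serially diluted compound for 30 min at 37 °C and then centrifuged. Released haemoglobin was read at A540 against a 0.1% Triton X-100 full-lysis control. EH50 is the interpolated concentration giving 50% of the control A540.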

[28] = test system: CCRF-CEM cells; assay: cytotoxic activity against mammalian cells in tissue culture (MTT); format: cell-based, human
Procedure: as §1

[29] = test system: HepG2 cells; assay: as above; format: cell-based, human
Procedure: as §1

Structure (SMILES)	IC50 (cytotoxic activity) [1]	Antifungal activity MIC [2]	Antifungal activity MIC [3]	Antifungal activity IC50 [4]	Antifungal activity MIC [4]	Antifungal activity MIC [5]	Antifungal activity MIC [6]	Antifungal activity MIC [7]	Antifungal activity MIC [8]	Antifungal activity MIC [9]	Antifungal activity MIC [10]	Antifungal activity MIC [11]	Antifungal activity MIC [12]	Antifungal activity MIC [13]	Antifungal activity MIC [14]	Antifungal activity MIC [15]	Antifungal activity MIC [16]	Antifungal activity MIC [17]	Antifungal activity MIC [18]	Antifungal activity MIC [19]	also measured
C[C@@H]1[C@H](O)[C@@H](C)/C=C/C=C/C=C/C=C/C=C/C=C/C=C/[C@H](O[C@@H]2O[C@H](C)[C@@H](O)[C@H](NC(=S)NCCN3CCCCC3)[C@@H]2O)C[C@@H]2O[C@](O)(C[C@@H](O)C[C@@H](O)[C@H](O)CC[C@@H](O)C[C@@H](O)CC(=O)O[C@H]1C)C[C@H](O)[C@H]2C(=O)O [Compound A22, N-{[3-(2-piperidin-1-yl)ethyl]thioureidyl}amphotericin B]	>100 µg/mL	4 µg/mL	1 µg/mL	0.71 µg/mL	1 µg/mL	1 µg/mL	1 µg/mL	2 µg/mL	2 µg/mL	1 µg/mL	2 µg/mL	1 µg/mL	2 µg/mL	1 µg/mL	2 µg/mL	2 µg/mL	1 µg/mL	2 µg/mL	4 µg/mL	4 µg/mL	Antifungal activity MIC [20]: 0.25 µg/mL; Antifungal activity MIC [21]: 1 µg/mL; Antifungal activity MIC [22]: 2 µg/mL; Antifungal activity MIC [23]: 8 µg/mL; Antifungal activity MIC [24]: 0.25 µg/mL; Antifungal activity MIC [25]: 2 µg/mL; Antifungal activity MIC [26]: 2 µg/mL; Hemotoxi EH50 [27]: >100 µg/mL; IC50 (cytotoxic activity) [28]: >100 µg/mL; IC50 (cytotoxic activity) [29]: >100 µg/mL
C[C@@H]1[C@H](O)[C@@H](C)/C=C/C=C/C=C/C=C/C=C/C=C/C=C/[C@H](O[C@@H]2O[C@H](C)[C@@H](O)[C@H](NC(=O)[C@@H](N)Cc3ccccc3)[C@@H]2O)C[C@@H]2O[C@](O)(C[C@@H](O)C[C@@H](O)[C@H](O)CC[C@@H](O)C[C@@H](O)CC(=O)O[C@H]1C)C[C@H](O)[C@H]2C(=O)O [Compound A30, N-L-phenylalanylamphotericin B]	>100 µg/mL	2 µg/mL	2 µg/mL	0.90 µg/mL	2 µg/mL	2 µg/mL	2 µg/mL	2 µg/mL	1 µg/mL	2 µg/mL	1 µg/mL	1 µg/mL	4 µg/mL	1 µg/mL	2 µg/mL	4 µg/mL	1 µg/mL	2 µg/mL	2 µg/mL	2 µg/mL	Antifungal activity MIC [20]: 0.5 µg/mL; Antifungal activity MIC [21]: 0.5 µg/mL; Antifungal activity MIC [22]: 1 µg/mL; Antifungal activity MIC [23]: 4 µg/mL; Antifungal activity MIC [24]: 1 µg/mL; Antifungal activity MIC [25]: 2 µg/mL; Antifungal activity MIC [26]: 1 µg/mL; Hemotoxi EH50 [27]: >100 µg/mL; IC50 (cytotoxic activity) [28]: >100 µg/mL; IC50 (cytotoxic activity) [29]: >100 µg/mL
C[C@@H]1[C@H](O)[C@@H](C)/C=C/C=C/C=C/C=C/C=C/C=C/C=C/[C@H](O[C@@H]2O[C@H](C)[C@@H](O)[C@H](NC(=O)[C@@H](N)Cc3ccc([N+](=O)[O-])cc3)[C@@H]2O)C[C@@H]2O[C@](O)(C[C@@H](O)C[C@@H](O)[C@H](O)CC[C@@H](O)C[C@@H](O)CC(=O)O[C@H]1C)C[C@H](O)[C@H]2C(=O)O [Compound A33, N-L-p-nitrophenylalanylamphotericin B]	>100 µg/mL	4 µg/mL	2 µg/mL	1.39 µg/mL	2 µg/mL	2 µg/mL	4 µg/mL	4 µg/mL	1 µg/mL	1 µg/mL	1 µg/mL	1 µg/mL	4 µg/mL	1 µg/mL	1 µg/mL	2 µg/mL	1 µg/mL	1 µg/mL	4 µg/mL	1 µg/mL	Antifungal activity MIC [20]: 0.5 µg/mL; Antifungal activity MIC [21]: 2 µg/mL; Antifungal activity MIC [22]: 0.5 µg/mL; Antifungal activity MIC [23]: 8 µg/mL; Antifungal activity MIC [24]: 1 µg/mL; Antifungal activity MIC [25]: 1 µg/mL; Antifungal activity MIC [26]: 1 µg/mL; Hemotoxi EH50 [27]: >100 µg/mL; IC50 (cytotoxic activity) [28]: >100 µg/mL; IC50 (cytotoxic activity) [29]: >100 µg/mL
